Data reported in patent US12162934B2, “Gremlin-1 antagonist for the prevention and treatment of cancer” (UCB BIOPHARMA SRL, priority 2018, dated 2024).

How the values were obtained:
[1] = system: Vil1-Grem1;Apc^Min mice; test: Vil1-Grem1;Apc^Min mouse polyposis model (survival); assay type: in vivo
[2] = system: intestinal epithelial pSMAD1,5 signalling; test: Western blot of intestinal epithelial pSMAD1,5 in treated Vil1-Grem1 animals; assay type: in vivo, mouse
Experimental: Western blotting. Isolation of colon epithelium cells was carried out by incubating a 2 cm long piece of tissue with 30 mM EDTA for 2 h with agitation at 4° C. Pelleted epithelial cells were lysed RIPA lysis buffer with the addition of protease inhibitors (Complete Mini, Roche) and phosphatase inhibitors (PhosSTOP, Roche). All lysates were quantified using the BCA assay (Thermo Scientific), […] was diluted in an appropriate amount of 4× loading dye (Invitrogen) and denatured at 95° C. for 5 minutes. Western blotting was done with the NuPAGE Gel system, (Invitrogen) according to manufacturer's protocol. Briefly, denatured lysates were loaded onto a 4-12% gel and run at 100 V for at least 2 hours. The gels were transferred onto PVDF membrane (Immobilon P, Millipore) in a semi-dry tank (120 mA for at least 2 hours) and blocked by incubating for 1 hour at room temperature in TBS containing 10% milk (Marvel). […] After further washes, the blots were incubated in ECL reagents (GE healthcare) and chemiluminescence was detected by chemiluminescence film (GE Healthcare).
Epithelial BMP activity can be measured by phosphorylation of the SMAD 1,5,8 intracellular signalling transducers.
The aberrant epithelial Grem1 expression in Vil1-Grem1 mice suppressed physiological intestinal BMP pathway activity with reduction in detected pSMAD1,5 protein levels detected by Western blot.

[3] = system: 5TGM1.Bmx1 MM PCs; test: 5TGM1/KaLwRij mouse model of multiple myeloma, antibody after tumour cell inoculation; assay type: in vivo; conditions: for Reduction in MM tumour burden (BLI): 30 mg/kg s.c. every 3 days from 3 days post-inoculation, 4 weeks
Experimental: Targeting Grem1 in an immunocompetent murine model of systemic MM: C57BL/KaLwRij mice (6-8-week-old) were inoculated with 5×10^5 5TGM1.Bmx1 cells via tail vein injection. Three days post-inoculation with 5TGM1.Bmx1 MM PCs, KaLwRij mice were administered with 30 mg/kg Grem1-neutralising antibody Ab7326 or IgG control Ab101.4 (UCB-Pharma, UK) by subcutaneous (s.c.) injection. Mice were treated every 3 days for the duration of the 4-week model. Tumour burden was monitored weekly by BLI as previously described. At the end of the experiment, blood was collected by tail bleed, centrifuged at 2100 g for 10 min and serum collected. Serum paraprotein levels were analysed using the Hydragel 30 β1β2 kit (Sebia Electrophoresis, Georgia, USA) following the instructions of the manufacturer. The band corresponding to paraprotein was quantitated relative to serum albumin levels. (SAAMRI Animal Ethics SAM165)

[4] = molecular target: T1, human Gremlin (Homo sapiens, UniProt O60565); test: Hek-Id1 reporter gene assay: anti-Gremlin-1 antibodies restoring BMP signalling blocked by human Gremlin; assay type: cell-based; conditions: 10-fold excess and 80% inhibition Gremlin-1 concentration
T1 sequence (O60565 25-184): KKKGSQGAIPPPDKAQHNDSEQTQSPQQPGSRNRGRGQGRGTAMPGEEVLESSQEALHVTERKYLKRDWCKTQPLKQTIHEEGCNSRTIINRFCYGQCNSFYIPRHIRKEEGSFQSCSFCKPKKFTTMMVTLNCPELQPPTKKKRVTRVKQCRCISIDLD
Description: The Hek Id1 reporter gene assay uses Clone 12 Hek293-Id1 reporter cells. This cell line was stably transfected with Id1 transcription factor. Id1 is a transcription factor in the BMP signalling pathway. Gremlin is known to bind BMPs prevent binding to their receptors reducing the luciferase signal from the reporter gene. Therefore, using this reporter assay, it is possible to screen anti-Gremlin antibodies and see if there are any that block the interaction of Gremlin with BMPs. A restoration of the luciferase signal is seen in these cells if there is a blocking of this interaction.
Clone 12 cells were cultured in DMEM containing 10% FCS, 1× L-Glutamine & 1× NEAA. […]
The cells were washed in PBS, lifted off using cell dissociation buffer, spun and counted before being seeded at 5×10^4/well in 70 μl (Density of 7.14×10^5/ml). […]
Post incubation, 30 μl of sample was transferred per well of assay plate and incubated for 20-24 hours before measuring luminescence signal.
Cell Steady Glo was thawed in advance at room temperature. […] Luciferase signal was detected by addition of cell steady glo reagent (100 μl) for 20 minutes on shaker at room temperature and measuring luminescence using cell titre glo protocol on Synergy 2. […]
The percentage of inhibition from dose response assays was calculated based on the maximum and minimum signals in the assay and the data fitted using 4 parameter logistical fit. […]

[5] = system: Apc^Min mice; test: Apc^Min mouse polyposis model (survival); assay type: in vivo; conditions: for median survival: vehicle 192 days

## Ab7326: allosteric inhibitory anti-Gremlin-1 antibody from a naïve human library; CDRs SEQ ID NOS 4 to 9; mouse IgG1 in mouse experiments
[1]; 15 mg/kg weekly, from 21 days of age, vehicle 45 days
  median survival: 76.5 days
[1]; 30 mg/kg twice weekly from 3 weeks of age, untreated VG-min 46 days
  mean lifespan: 108 days
[1]; 30 mg/kg weekly, from 21 days of age, ongoing experiment
  median survival: 108 days
[1]; 60 mg/kg weekly, from 21 days of age, ongoing experiment
  median survival: 111 days
[1]; late stage: treatment at or from the age of 35 days, antibody 30 mg/kg weekly, 5FU two i.p. daily doses of 40 mg/kg, no treatment 45 days
  median survival: 49.5 days
[2]; 10 mg/kg weekly subcutaneous
  Restoration of intestinal epithelial pSMAD1,5 signalling: not
[2]; 30 mg/kg weekly subcutaneous
  Restoration of intestinal epithelial pSMAD1,5 signalling: able to restore
[3]; vs IgG control
  Reduction in MM tumour burden (BLI): ~50%
[3]; vs IgG control, listed as Grem1-neutralising antibody
  Reduction in MM tumour burden (BLI): approximately 50%
[3]; antibody after tumour cell inoculation, vs IgG control
  Tumour burden in the hindlimb bones (BLI): significant reduction
[3]; post-tumour cell inoculation group
  Splenic tumour burden: downwards trend
[3]; week 4, vs IgG control
  M-spike intensity relative to serum albumin (SPEP): significantly lower
[4]
  Blocking ability in the Hek-Id1 reporter gene assay: maintained blocking ability
[5]; early stage treatment (42 days), 30 mg/kg weekly
  median survival: 424.5 days
[5]; established polyposis, 30 mg/kg weekly from 4 months
  median survival: 264.5 days
[5]; late-stage treatment (120 days), 30 mg/kg weekly
  median survival: 261 days
[5]; long term treatment initiated at 6 weeks of age
  Survival / polyp development: prolonged survival
